Test results: patent US9340554B2, “IRAK inhibitors and uses thereof” (Nimbus Iris, Inc., priority 2011, dated 2016)

Biological target: T1, IRAK4 (Homo sapiens, UniProt Q9NWZ3)
T1 construct: purchased CARNA Bioscience 09-145
T1 sequence (Q9NWZ3 1-460): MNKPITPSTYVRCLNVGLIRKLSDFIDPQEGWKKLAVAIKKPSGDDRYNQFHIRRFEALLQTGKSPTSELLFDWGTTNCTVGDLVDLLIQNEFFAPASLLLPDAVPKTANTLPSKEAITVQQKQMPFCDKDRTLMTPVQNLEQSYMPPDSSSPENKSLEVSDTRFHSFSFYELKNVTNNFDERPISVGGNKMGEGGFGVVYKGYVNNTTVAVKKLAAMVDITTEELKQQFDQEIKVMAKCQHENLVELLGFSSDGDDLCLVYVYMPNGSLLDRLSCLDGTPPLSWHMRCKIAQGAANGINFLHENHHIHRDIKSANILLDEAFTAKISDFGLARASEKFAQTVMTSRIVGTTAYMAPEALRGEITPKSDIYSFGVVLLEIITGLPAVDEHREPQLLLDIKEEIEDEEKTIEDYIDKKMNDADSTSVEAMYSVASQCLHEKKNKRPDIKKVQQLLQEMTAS
Assay: IRAK-4 activity inhibition assay (Caliper, Peptide 8, 37 μM ATP)
Format: biochemical
Conditions: 3.5 nM IRAK4, 1.5 μM Peptide 8, 37 μM ATP, 28° C. 40 minutes; read-out: IRAK-4 activity inhibition IC50
Protocol: A 1× kinase base buffer was prepared from 50 mM HEPES, pH 7.5 and 0.0015% Brij-35. A stop buffer was prepared from 100 mM HEPES, pH 7.5, 0.015% Brij-35, 0.2% Coating Reagent #3, and 50 mM EDTA.
Test compound was diluted to 50× of the final desired highest inhibitor concentration in reaction by 100% DMSO. 100 ul of this compound dilution was transferred to a well in a 96-well plate.
Test compound was serially diluted by transferring 30 μl to 60 μl of 100% DMSO in the next well and so forth for a total of 10 concentrations. 100 μl of 100% DMSO was added to two empty wells for no compound control and no enzyme control in the same 96-well plate.
A new 96-well plate was marked as intermediate plate. 5 μl of compound serial dilution was transferred from source plate to the corresponding wells of the intermediate plate. 45 μl of 1× kinase base buffer (KB buffer) was added to each well of the intermediate plate. The intermediate plate was placed for 10 min on a shaker.
5 μl of each well was transferred from the 96-well intermediate plate to a 384-well plate in duplicates. […] A2 of the 96-well plate is transferred to A3 and A4 of the 384-well plate, and so on.
IRAK4 and DTT in 1× kinase base buffer was added.
Assay plate already contained 5 μl of compound in 10% DMSO. Added 10 μl of 2.5× enzyme solution to each well of the 384-well assay plate, except no enzyme control wells. […] Added 10 μl of 1× kinase base buffer to no enzyme control wells in the assay plate. Incubated at room temperature for 10 min.
Added 10 μl of 2.5× peptide solution to each well of the 384-well assay plate. […] Incubated at 28° C. for 40 minutes. Added 25 μl of stop buffer to stop reaction. Collected data on Caliper.
Copied conversion % data from Caliper program. Converted conversion % values to percent inhibition values. Percent inhibition=(max−conversion %)/(max−min)*100, where “max” means the conversion % of DMSO control and “min” means the conversion % of no enzyme control.
The compound numbers correspond to the compound numbers in Table 1. […] “NA” stands for “not assayed.”

Row | Structure (SMILES) | IC50 [µM]
1 | OC1CCCC(Nc2ncnc3sc4c(c23)CCC4)C1 (mixture of isomers) [Compound I-15, 3-((6,7-dihydro-5H-cyclopenta[4,5]thieno[2,3-d]pyrimidin-4-yl)amino)cyclohexanol] | 5 to 20
2 | CC1CCc2sc3ncnc(NC4CCCC(O)C4)c3c2C1 (mixture of isomers) [Compound I-35, 3-((6-methyl-5,6,7,8-tetrahydrobenzo[4,5]thieno[2,3-d]pyrimidin-4-yl)amino)cyclohexanol] | 5 to 20
3 | O[C@@H]1CCC[C@H](Nc2ncnc3sc4c(c23)CCC4)C1 (relative stereo) [Compound I-21, cis-3-((6,7-dihydro-5H-cyclopenta[4,5]thieno[2,3-d]pyrimidin-4-yl)amino)cyclohexanol] | 5 to 20
4 | O[C@H]1CCC[C@H](Nc2ncnc3sc4c(c23)CCC4)C1 (relative stereo) [Compound I-22, trans-3-((6,7-dihydro-5H-cyclopenta[4,5]thieno[2,3-d]pyrimidin-4-yl)amino)cyclohexanol] | 5 to 20
5 | CC1CCc2sc3ncnc(N[C@H]4CC[C@H](O)CC4)c3c2C1 (relative stereo) [Compound I-37, trans-4-((6-methyl-5,6,7,8-tetrahydrobenzo[4,5]thieno[2,3-d]pyrimidin-4-yl)amino)cyclohexanol] | 5 to 20
6 | NC(=O)C1CCN(c2ncnc3sc4c(c23)CCCC4)CC1 [Compound I-1] | 5 to 20
7 | NC(=O)C1CCN(c2ncnc3sc4c(c23)CCCC4)CC1 [Compound I-2] | 20 to 50
8 | CC1CCc2c(sc3ncnc(N4CCC(C(N)=O)CC4)c23)C1 (centres unmarked) [Compound I-3] | 5 to 20
9 | O[C@H]1CC[C@H](Nc2ncnc3sc4c(c23)CCCC4)CC1 [Compound I-4, trans-4-((5,6,7,8-tetrahydrobenzo[4,5]thieno[2,3-d]pyrimidin-4-yl)amino)cyclohexanol] | 5 to 20
10 | OC1CCCC(Nc2ncnc3sc4c(c23)CCCC4)C1 (centres unmarked) [Compound I-5, 3-((5,6,7,8-tetrahydrobenzo[4,5]thieno[2,3-d]pyrimidin-4-yl)amino)cyclohexanol] | < 5
11 | O=C(O)[C@@H]1CC[C@H](Nc2ncnc3sc4c(c23)CCC4)C1 [Compound I-6] | 20 to 50
12 | O[C@H]1CC[C@H](Nc2ncnc3sc4c(c23)CCC4)CC1 [Compound I-7, trans-4-((6,7-dihydro-5H-cyclopenta[4,5]thieno[2,3-d]pyrimidin-4-yl)amino)cyclohexanol] | 5 to 20
13 | c1nc(NC2CCOCC2)c2c3c(sc2n1)CCC3 [Compound I-8] | 20 to 50
14 | NC1CCN(c2ncnc3sc4c(c23)CCC4)CC1 [Compound I-9] | 20 to 50
15 | N[C@H]1CC[C@H](Nc2ncnc3sc4c(c23)CCC4)CC1 [Compound I-10, trans-N^1-(6,7-dihydro-5H-cyclopenta[4,5]thieno[2,3-d]pyrimidin-4-yl)cyclohexane-1,4-diamine] | < 5
16 | CC(=O)N[C@H]1CC[C@H](Nc2ncnc3sc4c(c23)CCC4)CC1 [Compound I-11, N-(trans-4-((6,7-dihydro-5H-cyclopenta[4,5]thieno[2,3-d]pyrimidin-4-yl)amino)cyclohexyl)acetamide] | 5 to 20
17 | CCC1CCc2c(sc3ncnc(N4CCC(C(=O)NC)CC4)c23)C1 (centres unmarked) [Compound I-13] | 5 to 20
18 | CCC1CCc2c(sc3ncnc(N4CCC(C(=O)NO)CC4)c23)C1 (centres unmarked) [Compound I-14] | < 5
19 | CCC1CCc2c(sc3ncnc(N4CCN(C)CC4)c23)C1 (centres unmarked) [Compound I-16] | 5 to 20
20 | CCC1CCc2c(sc3ncnc(N4CCC(C(N)=O)CC4)c23)C1 (centres unmarked) [Compound I-17] | 5 to 20
21 | Cc1sc2ncnc(N3CCC(C(N)=O)CC3)c2c1C [Compound I-18] | 20 to 50
22 | Cc1sc2ncnc(N[C@H]3CC[C@H](O)CC3)c2c1C [Compound I-19, trans-4-((5,6-dimethylthieno[2,3-d]pyrimidin-4-yl)amino)cyclohexanol] | 5 to 20

Row | Structure (SMILES) | IC50 [µM]
23 | CCC1CCc2c(sc3ncnc(NC4CCN(Cc5ccccc5)CC4)c23)C1 (centres unmarked) [Compound I-20] | 20 to 50
24 | CC1CCc2c(sc3ncnc(N4CCN(S(=O)(=O)c5ccc(C(C)(C)C)cc5)CC4)c23)C1 (centres unmarked) [Compound I-23] | 20 to 50
25 | CCC(C)c1ccc(S(=O)(=O)N2CCN(c3ncnc4sc5c(c34)CCC(C)C5)CC2)cc1 (centres unmarked) [Compound I-24] | > 50
26 | Cc1sc2ncnc(N3CCC(C(=O)NCc4ccc(S(N)(=O)=O)cc4)CC3)c2c1C [Compound I-25] | 5 to 20
27 | COc1ccc(OCCN2CCN(c3ncnc4sc5c(c34)CCCC5)CC2)cc1 [Compound I-27] | 5 to 20
28 | CC1CCc2c(sc3ncnc(N4CCC5(CC4)NC(=O)NC5=O)c23)C1 (centres unmarked) [Compound I-28] | 5 to 20
29 | Cc1sc2ncnc(N3CCC(C(=O)NCCc4nnc5ccccn45)CC3)c2c1C [Compound I-29] | 5 to 20
30 | CCOc1ccccc1N1CCN(c2ncnc3sc4c(c23)CCC4)CC1 [Compound I-30] | > 50
31 | Cc1sc2ncnc(N3CCC(C(=O)Nc4ccc(C#N)c(Cl)c4)CC3)c2c1C [Compound I-31] | 5 to 20
32 | Cc1sc2ncnc(N3CCC(C(=O)Nc4cc(Cl)ccc4Cl)CC3)c2c1C [Compound I-32] | 5 to 20
33 | O=C(NCC(F)(F)F)C1CCN(c2ncnc3sc4c(c23)CCC4)CC1 [Compound I-33] | 20 to 50
34 | CN[C@H]1CC[C@H](Nc2ncnc3sc4c(c23)CCC4)CC1 [Compound I-34, trans-N^1-(6,7-dihydro-5H-cyclopenta[4,5]thieno[2,3-d]pyrimidin-4-yl)-N^4-methylcyclohexane-1,4-diamine] | < 5
35 | CC1CCc2sc3ncnc(N4CCC(C(N)=O)CC4)c3c2C1 (centres unmarked) [Compound I-36] | 5 to 20
36 | CC1(C)CCc2sc3ncnc(N[C@H]4CC[C@H](N)CC4)c3c2C1 [Compound I-38, trans-N^1-(6,6-dimethyl-5,6,7,8-tetrahydrobenzo[4,5]thieno[2,3-d]pyrimidin-4-yl)cyclohexane-1,4-diamine] | < 5
37 | CCC1CCc2c(sc3ncnc(N[C@H]4CC[C@H](N)CC4)c23)C1 (stereo partly drawn) [Compound I-39, trans-N^1-(7-ethyl-5,6,7,8-tetrahydrobenzo[4,5]thieno[2,3-d]pyrimidin-4-yl)cyclohexane-1,4-diamine] | < 5
38 | CN(C)[C@H]1CC[C@H](Nc2ncnc3sc4c(c23)CC(C)(C)CC4)CC1 [Compound I-40, trans-N^1-(6,6-dimethyl-5,6,7,8-tetrahydrobenzo[4,5]thieno[2,3-d]pyrimidin-4-yl)-N^4,N^4-dimethylcyclohexane-1,4-diamine] | < 5
39 | CN[C@H]1CC[C@H](Nc2ncnc3sc4c(c23)CC(C)(C)CC4)CC1 [Compound I-41, trans-N^1-(6,6-dimethyl-5,6,7,8-tetrahydrobenzo[4,5]thieno[2,3-d]pyrimidin-4-yl)-N^4-methylcyclohexane-1,4-diamine] | < 5
40 | CC1(C)CCc2sc3ncnc(N[C@H]4CC[C@H](O)CC4)c3c2C1 [Compound I-43, trans-4-((6,6-dimethyl-5,6,7,8-tetrahydrobenzo[4,5]thieno[2,3-d]pyrimidin-4-yl)amino)cyclohexanol] | 5 to 20
41 | CN[C@H]1CC[C@H](Nc2ncnc3sc(C)c(C)c23)CC1 [Compound I-44, trans-N^1-(5,6-dimethylthieno[2,3-d]pyrimidin-4-yl)-N^4-methylcyclohexane-1,4-diamine] | < 5
42 | C[C@@H]1CCc2sc3ncnc(N4CCC(C(N)=O)CC4)c3c2C1 [Compound I-45] | 5 to 20
43 | CC1(C)CCc2sc3ncnc(N4CCC(C(N)=O)CC4)c3c2C1 [Compound I-46] | 20 to 50
44 | C[C@@H]1CCc2sc3ncnc(N[C@H]4CC[C@H](O)CC4)c3c2C1 [Compound I-47, trans-4-(((R)-6-methyl-5,6,7,8-tetrahydrobenzo[4,5]thieno[2,3-d]pyrimidin-4-yl)amino)cyclohexanol] | 5 to 20
